Reference: the kinase profiling compilation of Christmann-Franck et al. (2016)

Experiments:
Assay in all cases: KINOMEscan competition binding
Details in all cases: compound 10.0 µM
[1] = biological target: MYLK4 (human) (UniProt Q86YV6)
[2] = biological target: ROCK2 (human) (UniProt O75116)
[3] = system: KIT (human), P10721 [V559D]
[4] = biological target: RPS6KA4 KD2 (human) (UniProt O75676)
[5] = biological target: PAK2 (human) (UniProt Q13177)
[6] = biological target: MAP3K9 (human) (UniProt P80192)
[7] = biological target: CAMKK2 (human) (UniProt Q96RR4)
[8] = biological target: RIPK4 (human) (UniProt P57078)
[9] = biological target: FGFR4 (human) (UniProt P22455)
[10] = biological target: CHEK2 (human) (UniProt O96017)
[11] = biological target: MAP2K4 (human) (UniProt P45985)
[12] = biological target: TYK2 JH2 pseudokinase (human) (UniProt P29597)
[13] = biological target: MAP4K4 (human) (UniProt O95819)
[14] = biological target: STK32B (human) (UniProt Q9NY57)
[15] = biological target: CDK5 (human) (UniProt Q00535)
[16] = biological target: PDGFRA (human) (UniProt P16234)
[17] = biological target: PAK1 (human) (UniProt Q13153)
[18] = biological target: FGFR2 (human) (UniProt P21802)
[19] = biological target: KDR (human) (UniProt P35968)
[20] = biological target: BMPR1A (human) (UniProt P36894)
[21] = biological target: AURKA (human) (UniProt O14965)
[22] = biological target: INSR (human) (UniProt P06213)
[23] = biological target: EPHB3 (human) (UniProt P54753)
[24] = biological target: PIP5K1A (human) (UniProt Q99755)
[25] = biological target: PRKCQ (human) (UniProt Q04759)
[26] = biological target: RPS6KA2 KD2 (human) (UniProt Q15349)
[27] = biological target: RPS6KA3 KD1 (human) (UniProt P51812)
[28] = biological target: CLK4 (human) (UniProt Q9HAZ1)
[29] = biological target: MAPK6 (human) (UniProt Q16659)
[30] = biological target: MYO3B (human) (UniProt Q8WXR4)
[31] = biological target: NTRK3 (human) (UniProt Q16288)
[32] = biological target: RPS6KA5 KD2 (human) (UniProt O75582)
[33] = biological target: IRAK3 (human) (UniProt Q9Y616)
[34] = biological target: MAP4K3 (human) (UniProt Q8IVH8)
[35] = biological target: CSK (human) (UniProt P41240)
[36] = biological target: TESK1 (human) (UniProt Q15569)
[37] = biological target: STK10 (human) (UniProt O94804)
[38] = biological target: MAP3K12 (human) (UniProt Q12852)
[39] = biological target: CSNK1G2 (human) (UniProt P78368)
[40] = biological target: CDKL2 (human) (UniProt Q92772)

PRKCQ (human), sequence (Q04759 whole entry, looked up): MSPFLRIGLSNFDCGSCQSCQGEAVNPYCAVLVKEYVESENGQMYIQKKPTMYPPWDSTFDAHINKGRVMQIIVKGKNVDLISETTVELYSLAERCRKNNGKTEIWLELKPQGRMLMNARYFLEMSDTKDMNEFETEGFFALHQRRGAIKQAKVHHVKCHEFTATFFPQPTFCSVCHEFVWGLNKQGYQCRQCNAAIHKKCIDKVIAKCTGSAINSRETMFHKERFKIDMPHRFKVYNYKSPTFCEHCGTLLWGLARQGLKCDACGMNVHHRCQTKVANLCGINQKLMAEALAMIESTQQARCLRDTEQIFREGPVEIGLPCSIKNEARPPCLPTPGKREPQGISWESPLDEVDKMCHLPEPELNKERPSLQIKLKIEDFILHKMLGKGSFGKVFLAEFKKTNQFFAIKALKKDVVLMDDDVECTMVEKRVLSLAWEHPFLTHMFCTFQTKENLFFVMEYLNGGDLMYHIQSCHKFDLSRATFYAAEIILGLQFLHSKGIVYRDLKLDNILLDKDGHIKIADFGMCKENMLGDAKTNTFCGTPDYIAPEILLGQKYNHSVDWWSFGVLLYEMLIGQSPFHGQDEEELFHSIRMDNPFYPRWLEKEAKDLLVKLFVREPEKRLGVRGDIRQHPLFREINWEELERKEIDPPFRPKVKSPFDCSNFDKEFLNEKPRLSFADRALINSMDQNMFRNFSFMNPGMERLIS
RIPK4 (human), sequence (P57078 whole entry, looked up): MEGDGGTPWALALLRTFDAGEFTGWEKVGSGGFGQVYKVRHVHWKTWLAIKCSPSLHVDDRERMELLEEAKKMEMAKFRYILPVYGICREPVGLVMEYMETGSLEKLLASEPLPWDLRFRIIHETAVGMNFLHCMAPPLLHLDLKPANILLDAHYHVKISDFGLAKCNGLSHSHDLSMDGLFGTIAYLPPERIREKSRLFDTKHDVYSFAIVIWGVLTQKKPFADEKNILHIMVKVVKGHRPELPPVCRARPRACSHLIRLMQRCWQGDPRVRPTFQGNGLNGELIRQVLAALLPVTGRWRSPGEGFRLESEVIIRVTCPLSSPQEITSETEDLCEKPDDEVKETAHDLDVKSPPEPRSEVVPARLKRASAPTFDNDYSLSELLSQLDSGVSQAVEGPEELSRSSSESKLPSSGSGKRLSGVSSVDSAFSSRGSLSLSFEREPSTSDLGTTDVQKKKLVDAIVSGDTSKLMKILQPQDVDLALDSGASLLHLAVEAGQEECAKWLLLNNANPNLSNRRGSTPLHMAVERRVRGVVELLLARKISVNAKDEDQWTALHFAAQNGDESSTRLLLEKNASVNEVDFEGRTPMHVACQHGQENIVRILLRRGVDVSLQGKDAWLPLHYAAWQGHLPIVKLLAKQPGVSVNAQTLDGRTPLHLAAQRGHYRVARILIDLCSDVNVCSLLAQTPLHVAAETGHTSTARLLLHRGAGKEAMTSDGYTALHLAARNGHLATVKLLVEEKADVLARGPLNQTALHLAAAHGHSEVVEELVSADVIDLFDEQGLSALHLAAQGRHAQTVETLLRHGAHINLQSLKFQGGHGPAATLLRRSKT
MYLK4 (human), sequence (Q86YV6 whole entry, looked up): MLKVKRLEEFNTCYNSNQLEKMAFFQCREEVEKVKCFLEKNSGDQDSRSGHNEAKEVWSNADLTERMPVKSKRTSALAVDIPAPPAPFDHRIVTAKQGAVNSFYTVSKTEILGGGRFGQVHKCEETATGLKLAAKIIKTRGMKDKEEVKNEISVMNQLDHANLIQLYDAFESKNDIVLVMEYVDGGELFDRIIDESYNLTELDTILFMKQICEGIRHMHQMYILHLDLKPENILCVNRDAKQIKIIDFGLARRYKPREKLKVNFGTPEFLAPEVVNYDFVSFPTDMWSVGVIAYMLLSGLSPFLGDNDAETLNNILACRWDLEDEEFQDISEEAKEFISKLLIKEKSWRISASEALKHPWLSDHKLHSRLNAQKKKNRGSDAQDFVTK
STK10 (human), sequence (O94804 whole entry, looked up): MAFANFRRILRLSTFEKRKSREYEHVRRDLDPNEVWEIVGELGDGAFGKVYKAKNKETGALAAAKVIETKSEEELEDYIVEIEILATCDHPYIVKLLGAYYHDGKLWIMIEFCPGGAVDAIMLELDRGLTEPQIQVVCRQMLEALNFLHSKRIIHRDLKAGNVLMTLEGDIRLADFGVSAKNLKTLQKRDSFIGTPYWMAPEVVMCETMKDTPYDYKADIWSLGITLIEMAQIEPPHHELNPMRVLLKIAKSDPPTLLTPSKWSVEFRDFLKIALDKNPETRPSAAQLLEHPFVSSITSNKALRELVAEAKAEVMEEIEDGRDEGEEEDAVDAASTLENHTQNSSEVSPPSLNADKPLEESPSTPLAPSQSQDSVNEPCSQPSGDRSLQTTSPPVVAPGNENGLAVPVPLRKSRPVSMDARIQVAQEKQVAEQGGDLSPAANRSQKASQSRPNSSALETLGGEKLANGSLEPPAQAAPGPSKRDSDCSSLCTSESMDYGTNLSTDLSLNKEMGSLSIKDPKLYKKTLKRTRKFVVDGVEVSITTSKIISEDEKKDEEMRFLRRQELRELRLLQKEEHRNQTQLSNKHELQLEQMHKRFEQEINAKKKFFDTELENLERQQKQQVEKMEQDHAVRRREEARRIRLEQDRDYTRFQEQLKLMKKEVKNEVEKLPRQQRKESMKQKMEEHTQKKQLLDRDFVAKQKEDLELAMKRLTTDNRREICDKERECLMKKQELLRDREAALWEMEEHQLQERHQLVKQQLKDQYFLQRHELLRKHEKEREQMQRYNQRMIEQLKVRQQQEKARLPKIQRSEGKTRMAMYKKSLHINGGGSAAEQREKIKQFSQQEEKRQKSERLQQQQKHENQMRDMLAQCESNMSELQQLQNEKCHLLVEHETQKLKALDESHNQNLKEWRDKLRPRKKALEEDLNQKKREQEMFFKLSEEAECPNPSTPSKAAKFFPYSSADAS
RPS6KA2 KD2 (human), sequence (Q15349 whole entry, looked up): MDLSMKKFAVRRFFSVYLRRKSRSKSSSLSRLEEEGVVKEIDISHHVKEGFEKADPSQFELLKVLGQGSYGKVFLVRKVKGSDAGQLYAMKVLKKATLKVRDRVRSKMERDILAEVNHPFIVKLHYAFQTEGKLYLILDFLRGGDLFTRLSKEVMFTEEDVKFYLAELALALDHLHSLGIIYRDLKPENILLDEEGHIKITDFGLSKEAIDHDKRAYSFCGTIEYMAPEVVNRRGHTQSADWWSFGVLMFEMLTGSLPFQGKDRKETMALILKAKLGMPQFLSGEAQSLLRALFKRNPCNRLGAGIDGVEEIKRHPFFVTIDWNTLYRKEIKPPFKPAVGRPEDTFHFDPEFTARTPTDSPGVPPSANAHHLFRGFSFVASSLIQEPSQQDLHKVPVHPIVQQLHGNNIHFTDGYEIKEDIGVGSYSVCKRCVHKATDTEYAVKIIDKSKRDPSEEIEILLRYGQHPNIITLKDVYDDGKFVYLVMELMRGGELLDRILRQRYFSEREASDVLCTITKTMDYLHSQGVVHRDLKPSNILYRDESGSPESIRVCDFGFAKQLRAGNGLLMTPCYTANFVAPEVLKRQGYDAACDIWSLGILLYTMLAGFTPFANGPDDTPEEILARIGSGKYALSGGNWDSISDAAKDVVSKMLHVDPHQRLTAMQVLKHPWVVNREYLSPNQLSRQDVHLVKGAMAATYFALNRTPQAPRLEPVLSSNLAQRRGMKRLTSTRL
RPS6KA3 KD1 (human), sequence (P51812 whole entry, looked up): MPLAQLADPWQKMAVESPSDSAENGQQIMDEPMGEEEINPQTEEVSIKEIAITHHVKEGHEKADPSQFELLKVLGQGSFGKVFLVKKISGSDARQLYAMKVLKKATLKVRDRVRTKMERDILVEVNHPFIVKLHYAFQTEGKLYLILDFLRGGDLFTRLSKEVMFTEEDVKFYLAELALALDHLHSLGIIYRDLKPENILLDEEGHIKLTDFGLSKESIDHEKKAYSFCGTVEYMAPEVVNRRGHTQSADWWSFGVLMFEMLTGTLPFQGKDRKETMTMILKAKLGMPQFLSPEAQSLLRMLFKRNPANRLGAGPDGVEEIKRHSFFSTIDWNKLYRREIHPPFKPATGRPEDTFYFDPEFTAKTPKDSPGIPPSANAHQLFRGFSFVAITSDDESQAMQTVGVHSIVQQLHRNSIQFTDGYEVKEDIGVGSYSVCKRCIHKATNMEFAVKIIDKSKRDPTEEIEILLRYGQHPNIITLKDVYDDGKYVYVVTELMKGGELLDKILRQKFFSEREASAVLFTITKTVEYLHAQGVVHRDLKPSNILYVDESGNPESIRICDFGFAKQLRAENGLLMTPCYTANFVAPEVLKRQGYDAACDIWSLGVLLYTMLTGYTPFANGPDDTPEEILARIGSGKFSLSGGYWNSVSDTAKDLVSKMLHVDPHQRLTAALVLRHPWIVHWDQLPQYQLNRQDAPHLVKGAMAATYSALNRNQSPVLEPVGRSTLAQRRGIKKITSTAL
MAP2K4 (human), sequence (P45985 whole entry, looked up): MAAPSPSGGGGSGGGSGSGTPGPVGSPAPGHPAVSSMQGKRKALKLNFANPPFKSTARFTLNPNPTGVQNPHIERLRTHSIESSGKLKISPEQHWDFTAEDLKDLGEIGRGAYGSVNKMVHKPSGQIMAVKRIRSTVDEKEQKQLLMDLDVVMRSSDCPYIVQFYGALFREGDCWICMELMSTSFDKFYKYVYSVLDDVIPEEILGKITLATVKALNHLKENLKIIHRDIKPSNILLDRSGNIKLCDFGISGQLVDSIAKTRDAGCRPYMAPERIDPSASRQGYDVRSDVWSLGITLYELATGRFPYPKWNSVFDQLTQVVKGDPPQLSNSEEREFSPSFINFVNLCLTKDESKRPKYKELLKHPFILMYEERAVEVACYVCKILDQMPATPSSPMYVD

SMILES: COc1cc(N2CCN(C)CC2)ccc1Nc1nc(N)c(C(=O)c2c(Cl)cccc2Cl)s1
- kinase still bound, per cent of control [1]: 100%
- kinase still bound, per cent of control [2]: 88%
- kinase still bound, per cent of control [3]: 100%
- kinase still bound, per cent of control [4]: 100%
- kinase still bound, per cent of control [5]: 100%
- kinase still bound, per cent of control [6]: 100%
- kinase still bound, per cent of control [7]: 14%
- kinase still bound, per cent of control [8]: 96%
- kinase still bound, per cent of control [9]: 89%
- kinase still bound, per cent of control [10]: 100%
- kinase still bound, per cent of control [11]: 70%
- kinase still bound, per cent of control [12]: 60%
- kinase still bound, per cent of control [13]: 76%
- kinase still bound, per cent of control [14]: 76%
- kinase still bound, per cent of control [15]: 88%
- kinase still bound, per cent of control [16]: 84%
- kinase still bound, per cent of control [17]: 91%
- kinase still bound, per cent of control [18]: 91%
- kinase still bound, per cent of control [19]: 97%
- kinase still bound, per cent of control [20]: 100%
- kinase still bound, per cent of control [21]: 100%
- kinase still bound, per cent of control [22]: 94%
- kinase still bound, per cent of control [23]: 0%
- kinase still bound, per cent of control [24]: 88%
- kinase still bound, per cent of control [25]: 54%
- kinase still bound, per cent of control [26]: 2.9%
- kinase still bound, per cent of control [27]: 66%
- kinase still bound, per cent of control [28]: 50%
- kinase still bound, per cent of control [29]: 100%
- kinase still bound, per cent of control [30]: 94%
- kinase still bound, per cent of control [31]: 100%
- kinase still bound, per cent of control [32]: 96%
- kinase still bound, per cent of control [33]: 90%
- kinase still bound, per cent of control [34]: 100%
- kinase still bound, per cent of control [35]: 90%
- kinase still bound, per cent of control [36]: 100%
- kinase still bound, per cent of control [37]: 40%
- kinase still bound, per cent of control [38]: 97%
- kinase still bound, per cent of control [39]: 100%
- kinase still bound, per cent of control [40]: 93%
